According to patent US9611269B2, “Azetidinyl phenyl, pyridyl or pyrazinyl carboxamide derivatives as JAK inhibitors” (Incyte Corporation, priority 2011, dated 2017):
pIC50: −log10 of the molar value.

Columns and labels:
Format in all cases: biochemical
[1] = molecular target: human JAK2 (a.a. 828-1132) catalytic domain (Homo sapiens (Human), UniProt O60674); assay: In vitro JAK kinase assay (HTRF, 1 mM ATP), JAK2; settings: at 1 mM ATP
Protocol: (§1) The catalytic activity of JAK1, JAK2 or JAK3 was assayed by measuring the phosphorylation of a biotinylated peptide. The phosphorylated peptide was detected by homogenous time resolved fluorescence (HTRF). […] Reactions were carried out at room temperature for 1 hour and then stopped with 20 μL 45 mM EDTA, 300 nM SA-APC, 6 nM Eu-Py20 in assay buffer (Perkin Elmer, Boston, Mass.). Binding to the Europium labeled antibody took place for 40 minutes and HTRF signal was measured on a Fusion plate reader (Perkin Elmer, Boston, Mass.).

[2] = molecular target: human JAK1 (a.a. 837-1142) catalytic domain (Homo sapiens, UniProt P23458); assay: In vitro JAK kinase assay (HTRF, 1 mM ATP), JAK1; settings: at 1 mM ATP;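 also: kinase activity followed as phosphorylation of a biotin-tagged peptide, detected by HTRF with Eu-labelled anti-phosphotyrosine antibody and SA-APC, after 1 h reaction at room temperature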
Protocol: as §1

[3] = system: human JAK1 (a.a. 837-1142) catalytic domain; assay: In vitro JAK kinase assay (HTRF, 1 mM ATP), JAK1; settings: ratio of JAK2 IC50 to JAK1 IC50 at 1 mM ATP;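 also: kinase activity followed as phosphorylation of a biotin-tagged peptide, detected by HTRF with Eu-labelled anti-phosphotyrosine antibody and SA-APC, after 1 h reaction at room temperature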
Protocol: as §1

Chain of human JAK1 (a.a. 837-1142) catalytic domain (Homo sapiens, UniProt P23458) (P23458 whole entry, looked up, the tested form may be a part): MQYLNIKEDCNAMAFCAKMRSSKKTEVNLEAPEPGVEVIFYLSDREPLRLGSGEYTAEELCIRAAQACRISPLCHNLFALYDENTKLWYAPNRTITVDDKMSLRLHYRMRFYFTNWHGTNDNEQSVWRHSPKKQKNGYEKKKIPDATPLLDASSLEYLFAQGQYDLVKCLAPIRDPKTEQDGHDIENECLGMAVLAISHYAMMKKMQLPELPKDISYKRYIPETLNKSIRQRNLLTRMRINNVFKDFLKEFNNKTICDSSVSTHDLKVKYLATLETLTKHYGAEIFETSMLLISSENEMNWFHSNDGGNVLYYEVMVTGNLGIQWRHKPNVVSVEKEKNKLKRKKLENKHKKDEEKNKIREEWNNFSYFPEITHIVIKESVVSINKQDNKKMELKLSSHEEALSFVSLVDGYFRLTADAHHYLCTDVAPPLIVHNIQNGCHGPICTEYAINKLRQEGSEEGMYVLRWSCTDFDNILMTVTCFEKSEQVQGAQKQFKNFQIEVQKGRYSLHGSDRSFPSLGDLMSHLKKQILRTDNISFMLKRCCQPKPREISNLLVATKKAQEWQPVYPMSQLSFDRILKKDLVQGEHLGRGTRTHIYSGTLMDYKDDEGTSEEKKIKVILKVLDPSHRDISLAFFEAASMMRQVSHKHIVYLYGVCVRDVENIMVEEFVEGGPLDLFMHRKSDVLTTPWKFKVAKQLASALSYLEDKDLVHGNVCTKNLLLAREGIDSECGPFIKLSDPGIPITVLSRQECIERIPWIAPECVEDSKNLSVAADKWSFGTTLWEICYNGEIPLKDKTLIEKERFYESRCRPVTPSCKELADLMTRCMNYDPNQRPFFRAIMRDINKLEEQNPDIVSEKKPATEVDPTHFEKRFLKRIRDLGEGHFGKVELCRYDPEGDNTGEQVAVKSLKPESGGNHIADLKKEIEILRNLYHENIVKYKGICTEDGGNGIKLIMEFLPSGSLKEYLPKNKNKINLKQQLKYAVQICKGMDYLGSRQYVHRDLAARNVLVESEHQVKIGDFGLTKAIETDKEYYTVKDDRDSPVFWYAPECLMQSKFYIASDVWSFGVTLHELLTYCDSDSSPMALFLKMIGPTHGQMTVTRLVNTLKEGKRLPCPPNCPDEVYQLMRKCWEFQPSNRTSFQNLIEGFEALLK
Chain of human JAK2 (a.a. 828-1132) catalytic domain (O60674 828-1132): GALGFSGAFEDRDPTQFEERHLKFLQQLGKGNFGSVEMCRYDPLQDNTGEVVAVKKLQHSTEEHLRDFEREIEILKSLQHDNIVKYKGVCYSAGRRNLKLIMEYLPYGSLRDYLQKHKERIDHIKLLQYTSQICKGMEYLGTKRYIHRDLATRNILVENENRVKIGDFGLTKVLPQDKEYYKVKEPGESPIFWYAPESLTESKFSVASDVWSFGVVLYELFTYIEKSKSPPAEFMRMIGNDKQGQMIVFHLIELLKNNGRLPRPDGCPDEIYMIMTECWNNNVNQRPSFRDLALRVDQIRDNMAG

SMILES	pIC50 [1]	pIC50 [2]	JAK2/JAK1 [3]
CC(C)NC(=O)c1ccc(N2CC(CC#N)(n3cc(-c4ccnc5[nH]ccc45)cn3)C2)cc1 [Example 1, 4-{3-(Cyanomethyl)-3-[4-(1H-pyrrolo[2,3-b]pyridin-4-yl)-1H-pyrazol-1-yl]azetidin-1-yl}-N-isopropylbenzamide]	7.40 to 8.00	> 8.00	A (A means greater than or equal to 10)
C[C@H](NC(=O)c1ccc(N2CC(CC#N)(n3cc(-c4ccnc5[nH]ccc45)cn3)C2)cn1)C1CC1 [Example 2, 5-{3-(Cyanomethyl)-3-[4-(1H-pyrrolo[2,3-b]pyridin-4-yl)-1H-pyrazol-1-yl]azetidin-1-yl}-N-[(1S)-1-cyclopropylethyl]pyridine-2-carboxamide]	≥ 8.00	> 8.00	A (A means greater than or equal to 10)
CC(C)NC(=O)c1ccc(N2CC(CC#N)(n3cc(-c4ncnc5[nH]ccc45)cn3)C2)c(F)c1 [Example 3, 4-{3-(Cyanomethyl)-3-[4-(7H-pyrrolo[2,3-d]pyrimidin-4-yl)-1H-pyrazol-1-yl]azetidin-1-yl}-3-fluoro-N-isopropylbenzamide]	≥ 8.00	> 8.00	A (A means greater than or equal to 10)
C[C@@H](NC(=O)c1ccc(N2CC(CC#N)(n3cc(-c4ncnc5[nH]ccc45)cn3)C2)c(F)c1)C1CC1 [Example 4, 4-{3-(Cyanomethyl)-3-[4-(7H-pyrrolo[2,3-d]pyrimidin-4-yl)-1H-pyrazol-1-yl]azetidin-1-yl}-N-[(1R)-1-cyclopropylethyl]-3-fluorobenzamide]	≥ 8.00	> 8.00	A (A means greater than or equal to 10)
C[C@H](NC(=O)c1ccc(N2CC(CC#N)(n3cc(-c4ncnc5[nH]ccc45)cn3)C2)c(F)c1)C1CC1 [Example 5, 4-{3-(Cyanomethyl)-3-[4-(7H-pyrrolo[2,3-d]pyrimidin-4-yl)-1H-pyrazol-1-yl]azetidin-1-yl}-N-[(1S)-1-cyclopropylethyl]-3-fluorobenzamide]	≥ 8.00	> 8.00	A (A means greater than or equal to 10)
CC(C)NC(=O)c1cc(F)c(N2CC(CC#N)(n3cc(-c4ncnc5[nH]ccc45)cn3)C2)cc1F [Example 6, 4-{3-(Cyanomethyl)-3-[4-(7H-pyrrolo[2,3-d]pyrimidin-4-yl)-1H-pyrazol-1-yl]azetidin-1-yl}-2,5-difluoro-N-isopropylbenzamide]	≥ 8.00	> 8.00	A (A means greater than or equal to 10)
CN(C(=O)c1ccc(N2CC(CC#N)(n3cc(-c4ncnc5[nH]ccc45)cn3)C2)c(F)c1)C1CC1 [Example 7, 4-{3-(Cyanomethyl)-3-[4-(7H-pyrrolo[2,3-d]pyrimidin-4-yl)-1H-pyrazol-1-yl]azetidin-1-yl}-N-cyclopropyl-3-fluoro-N-methylbenzamide]	≥ 8.00	> 8.00	A (A means greater than or equal to 10)
CC(C)NC(=O)c1cc(Cl)c(N2CC(CC#N)(n3cc(-c4ncnc5[nH]ccc45)cn3)C2)cc1F [Example 8, 5-Chloro-4-{3-(cyanomethyl)-3-[4-(7H-pyrrolo[2,3-d]pyrimidin-4-yl)-1H-pyrazol-1-yl]azetidin-1-yl}-2-fluoro-N-isopropylbenzamide]	≥ 8.00	> 8.00	A (A means greater than or equal to 10)
CC(C)NC(=O)c1ccc(N2CC(CC#N)(n3cc(-c4ncnc5[nH]ccc45)cn3)C2)cn1 [Example 9, 5-{3-(Cyanomethyl)-3-[4-(7H-pyrrolo[2,3-d]pyrimidin-4-yl)-1H-pyrazol-1-yl]azetidin-1-yl}-N-isopropylpyridine-2-carboxamide]	≥ 8.00	> 8.00	A (A means greater than or equal to 10)
C[C@H](NC(=O)c1ccc(N2CC(CC#N)(n3cc(-c4ncnc5[nH]ccc45)cn3)C2)c(F)c1)C(F)(F)F [Example 10, 4-{3-(Cyanomethyl)-3-[4-(7H-pyrrolo[2,3-d]pyrimidin-4-yl)-1H-pyrazol-1-yl]azetidin-1-yl}-3-fluoro-N-[(1S)-2,2,2-trifluoro-1-methylethyl]benzamide]	≥ 8.00	> 8.00	A (A means greater than or equal to 10)
C[C@H](NC(=O)c1ccc(N2CC(CC#N)(n3cc(-c4ncnc5[nH]ccc45)cn3)C2)cn1)C1CC1 [Example 11, 5-{3-(Cyanomethyl)-3-[4-(7H-pyrrolo[2,3-d]pyrimidin-4-yl)-1H-pyrazol-1-yl]azetidin-1-yl}-N-[(1S)-1-cyclopropylethyl]pyridine-2-carboxamide]	≥ 8.00	> 8.00	A (A means greater than or equal to 10)
N#CCC1(n2cc(-c3ncnc4[nH]ccc34)cn2)CN(c2ccc(C(=O)NC3CC(F)(F)C3)nc2)C1 [Example 12, 5-{3-(Cyanomethyl)-3-[4-(7H-pyrrolo[2,3-d]pyrimidin-4-yl)-1H-pyrazol-1-yl]azetidin-1-yl}-N-(3,3-difluorocyclobutyl)pyridine-2-carboxamide]	≥ 8.00	> 8.00	A (A means greater than or equal to 10)
CC(C)NC(=O)c1ccc(N2CC(CC#N)(n3cc(-c4ncnc5[nH]ccc45)cn3)C2)cc1F [Example 14, 4-{3-(Cyanomethyl)-3-[4-(7H-pyrrolo[2,3-d]pyrimidin-4-yl)-1H-pyrazol-1-yl]azetidin-1-yl}-2-fluoro-N-isopropylbenzamide]	–	> 8.00	–
CC(C)NC(=O)c1cnc(N2CC(CC#N)(n3cc(-c4ncnc5[nH]ccc45)cn3)C2)cn1 [Example 18, 5-{3-(Cyanomethyl)-3-[4-(7H-pyrrolo[2,3-d]pyrimidin-4-yl)-1H-pyrazol-1-yl]azetidin-1-yl}-N-isopropylpyrazine-2-carboxamide]	7.40 to 8.00	–	–
C[C@H](NC(=O)c1ccc(N2CC(CC#N)(n3cc(-c4ncnc5[nH]ccc45)cn3)C2)cc1)C(F)(F)F [Example 19, 4-{3-(Cyanomethyl)-3-[4-(7H-pyrrolo[2,3-d]pyrimidin-4-yl)-1H-pyrazol-1-yl]azetidin-1-yl}-N-[(1S)-2,2,2-trifluoro-1-methylethyl]benzamide bis(trifluoroacetate)]	–	> 8.00	–
C[C@@H](NC(=O)c1ccc(N2CC(CC#N)(n3cc(-c4ncnc5[nH]ccc45)cn3)C2)cc1)C(F)(F)F [Example 23, 4-{3-(Cyanomethyl)-3-[4-(7H-pyrrolo[2,3-d]pyrimidin-4-yl)-1H-pyrazol-1-yl]azetidin-1-yl}-N-[(1R)-2,2,2-trifluoro-1-methylethyl]benzamide bis(trifluoroacetate)]	–	> 8.00	–
CC(NC(=O)c1ccc(N2CC(CC#N)(n3cc(-c4ncnc5[nH]ccc45)cn3)C2)cc1)C(F)(F)F (stereo not drawn) [Example 26, 4-{3-(Cyanomethyl)-3-[4-(7H-pyrrolo[2,3-d]pyrimidin-4-yl)-1H-pyrazol-1-yl]azetidin-1-yl}-N-(2,2,2-trifluoro-1-methylethyl)benzamide]	–	> 8.00	–
CC(C)NC(=O)c1cnc(N2CC(CC#N)(n3cc(-c4ccnc5[nH]ccc45)cn3)C2)cn1 [Example 34, 5-{3-(Cyanomethyl)-3-[4-(1H-pyrrolo[2,3-b]pyridin-4-yl)-1H-pyrazol-1-yl]azetidin-1-yl}-N-isopropylpyrazine-2-carboxamide]	7.40 to 8.00	–	–
